Reference: patent US12029738B2, “Antiproliferative compounds and methods of use thereof” (Celgene Corporation, priority 2017, dated 2024)
Values joined by “and” are separate entries in the source; they are usually repeats but may differ in a detail not shown here. Identical values can stand only once. Like-named read-outs stand apart in the source and are kept apart here.

Legend:
[1] = system: non-selective α1 adrenergic receptor; experiment: α1 adrenergic receptor radioligand binding ([3H]prazosin); details: rat cerebral cortex; for Adrenergic α1 (non-selective) % Inhibition (10 μM): 0.25 nM [3H]prazosin; for IC50: [3H]prazosin
Protocol: (§1) α1 Adrenergic and Dopamine D2 Receptors. Methods: Binding and functional assays for α1 adrenergic and dopamine D2 receptors were performed by Eurofins Cerep according to their methods.
α1 Adrenergic Receptor. Binding at 10 μM. The binding assay evaluated the affinity of test article for the non-selective α1 adrenergic receptor in rat cerebral cortex. Membrane homogenates of cerebral cortex were incubated in duplicate for 60 minutes at room temperature with 0.25 nM [^3H]prazosin in the absence or presence of test articles at 10 μM. After the incubation period, samples were filtered through glass fiber filters, the filters dried and then counted for radioactivity using a scintillation counter. Results are expressed as mean percent inhibition of control radioligand binding.
Binding IC50. […] Compound A was tested at 0.01-30 μM. […] Compound 1 and Compound 2, the S-enantiomer of Compound 1, were assayed at 0.03-100 μM. Radioactivity was measured as described above. The IC50 was defined as the concentration causing a half-maximum inhibition of control specific binding.

α1A adrenergic receptor = target: T1, α1A adrenergic receptor (Homo sapiens, UniProt P35348); experiment: α1A adrenergic receptor antagonist assay (calcium mobilization, CHO cells); format: cell-based
T1 construct: host or cells: CHO cells
T1 sequence (P35348 1-466): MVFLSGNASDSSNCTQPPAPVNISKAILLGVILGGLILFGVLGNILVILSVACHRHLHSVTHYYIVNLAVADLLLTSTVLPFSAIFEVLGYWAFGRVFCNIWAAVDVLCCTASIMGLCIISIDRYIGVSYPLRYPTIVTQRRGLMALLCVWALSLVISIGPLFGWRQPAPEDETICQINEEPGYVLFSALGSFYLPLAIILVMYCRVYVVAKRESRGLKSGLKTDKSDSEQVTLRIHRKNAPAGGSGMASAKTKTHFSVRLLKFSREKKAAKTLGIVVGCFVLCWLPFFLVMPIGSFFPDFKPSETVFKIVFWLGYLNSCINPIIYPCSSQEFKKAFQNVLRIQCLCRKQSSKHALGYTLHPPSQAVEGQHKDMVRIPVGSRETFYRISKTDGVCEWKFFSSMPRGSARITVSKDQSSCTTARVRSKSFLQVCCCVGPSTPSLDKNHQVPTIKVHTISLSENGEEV
Protocol: as §1
(§2) Antagonist activity. The antagonistic effects of test compounds on the α1A and α1B adrenergic receptors were measured using human receptor-transfected Chinese hamster ovary (CHO) cells. Antagonist activity was determined by measuring compound effect on agonist (epinephrine)-induced calcium mobilization in the α1A receptor assay or cAMP levels in the α1B receptor assay. In these experiments, CHO cells were incubated in duplicate at room temperature with test article and epinephrine at 3 nM in the α1A receptor assays or at 3000 nM in the α1B receptor assay. Compound A was tested in the α1A receptor assay at 0.01-30 μM. […] Compound 1 and Compound 2 were assayed at 0.03 to 30 μM in the α1A receptor assay and 0.03 to 100 μM in the α1B receptor assay. In the α1A receptor assay, cytosolic calcium levels were measured fluorometrically using the fluorescent probe, Fluo4 Direct. Intracellular cAMP levels in the α1B adrenergic receptor assay were measured by homogenous time-resolved fluorescence (HTRF). The antagonism IC50 was defined as the concentration causing a half-maximum inhibition of control agonist response.

dopamine D2S receptor [2] = target: T2, dopamine D2S receptor (Homo sapiens, UniProt P14416); experiment: Dopamine D2S receptor agonist assay (impedance, HEK-293); format: cell-based
T2 construct: host or cells: HEK-293 cells (membrane homogenates)
T2 sequence (P14416 1-414 isoform P14416-2): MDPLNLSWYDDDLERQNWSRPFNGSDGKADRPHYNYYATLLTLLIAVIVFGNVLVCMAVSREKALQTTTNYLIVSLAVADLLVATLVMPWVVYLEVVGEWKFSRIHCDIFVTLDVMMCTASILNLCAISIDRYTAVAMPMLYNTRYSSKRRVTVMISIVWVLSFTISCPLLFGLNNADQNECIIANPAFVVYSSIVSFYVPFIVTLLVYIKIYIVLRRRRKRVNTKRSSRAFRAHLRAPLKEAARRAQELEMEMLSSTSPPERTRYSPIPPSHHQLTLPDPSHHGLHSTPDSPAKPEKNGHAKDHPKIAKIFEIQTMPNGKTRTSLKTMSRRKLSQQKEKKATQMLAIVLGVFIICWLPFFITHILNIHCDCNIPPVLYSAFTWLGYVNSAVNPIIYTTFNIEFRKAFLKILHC
Protocol: as §1
Agonist activity. The agonism of test compounds on the dopamine D2S receptor was assessed using human receptor-transfected HEK-293 cells. Agonist activity was determined by measuring compound effect on impedance modulation. In these experiments, HEK-293 cells were incubated in duplicate at 28° C. with test article. Compound A was tested at 0.01-30 μM. […] Dopamine (3 μM) was used as an agonist control. Impedance measurements were monitored for 10 minutes after ligand addition using cellular dielectric spectroscopy. The EC50 was defined as the concentration causing a half-maximum response, compared to the control agonist (dopamine) response.

α1B adrenergic receptor = target: T3, α1B adrenergic receptor (Homo sapiens, UniProt P35368); experiment: α1B adrenergic receptor antagonist assay (cAMP, CHO cells); format: cell-based
T3 construct: host or cells: CHO cells
T3 sequence (P35368 1-520): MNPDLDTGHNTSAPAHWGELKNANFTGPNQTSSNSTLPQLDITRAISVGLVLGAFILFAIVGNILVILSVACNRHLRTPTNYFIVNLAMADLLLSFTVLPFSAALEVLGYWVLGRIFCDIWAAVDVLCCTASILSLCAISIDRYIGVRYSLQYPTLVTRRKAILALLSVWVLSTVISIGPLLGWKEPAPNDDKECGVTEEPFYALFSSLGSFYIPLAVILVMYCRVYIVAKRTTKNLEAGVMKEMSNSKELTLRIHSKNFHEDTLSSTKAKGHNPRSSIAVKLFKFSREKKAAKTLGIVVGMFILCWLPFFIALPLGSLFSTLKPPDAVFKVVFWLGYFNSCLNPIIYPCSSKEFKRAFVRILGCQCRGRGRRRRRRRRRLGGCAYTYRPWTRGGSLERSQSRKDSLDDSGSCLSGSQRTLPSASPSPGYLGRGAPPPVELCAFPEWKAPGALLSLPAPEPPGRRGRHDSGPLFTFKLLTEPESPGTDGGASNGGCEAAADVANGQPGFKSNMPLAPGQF
Protocol: as §1, §2

dopamine D2L receptor = target: T4, dopamine D2L receptor (Homo sapiens, UniProt P14416); experiment: Dopamine D2L receptor radioligand binding (HEK-293)
T4 construct: host or cells: HEK-293 cells (membrane homogenates)
T4 sequence (P14416 whole entry): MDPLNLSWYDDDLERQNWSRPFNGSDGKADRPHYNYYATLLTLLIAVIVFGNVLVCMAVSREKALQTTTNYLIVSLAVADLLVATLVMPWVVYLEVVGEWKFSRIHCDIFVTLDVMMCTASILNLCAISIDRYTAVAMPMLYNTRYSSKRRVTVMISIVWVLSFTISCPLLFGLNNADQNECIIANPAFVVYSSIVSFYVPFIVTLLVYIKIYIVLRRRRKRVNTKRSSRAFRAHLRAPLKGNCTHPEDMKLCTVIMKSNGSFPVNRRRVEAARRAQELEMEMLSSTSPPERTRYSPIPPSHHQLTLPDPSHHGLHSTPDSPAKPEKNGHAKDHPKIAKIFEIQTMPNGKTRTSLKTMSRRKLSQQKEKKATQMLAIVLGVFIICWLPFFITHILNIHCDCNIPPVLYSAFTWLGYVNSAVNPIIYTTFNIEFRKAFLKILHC
Protocol: as §1
(§3) Dopamine D2 Receptor. Binding at 10 μM. The binding assay evaluated the affinity of test articles for the dopamine D2 receptor in transfected human embryonic kidney (HEK)-293 cells. For determining the binding in the D2S receptor assay, test article was incubated with 0.3 nM [^3H] methylspiperone or 1 nM [^3H] 7-hydroxy-2-N,N-dipropylaminotetralin (7-OH-DPAT). [3H] Methylspiperone at 0.3 nM also was used as control ligand in the D2L binding assay. Cell membrane homogenates were incubated in duplicate at room temperature for 60 minutes with ligand in the absence or presence of test articles at 10 μM. After the incubation period, samples were filtered through glass fiber filters, the filters dried and then counted for radioactivity using a scintillation counter. Results are expressed as mean percent inhibition of control radioligand binding.
(§4) Binding IC50. To determine the binding IC50 in the D2 receptor assays, HEK-293 were tested as described above but with varying concentrations of test article. Compound A was tested at 0.01-30 μM in the D2S radioligand binding assay. […] Compound 1 was assayed at 0.03-100 μM in both the D2S and D2L assays, while Compound 2 was tested at 0.03-100 μM in the D2S assay and 0.01-100 μM in the D2L assays. The IC50 was defined as the concentration causing a half-maximum inhibition of control specific binding.

dopamine D2S receptor [3] = target: T2, dopamine D2S receptor; experiment: Dopamine D2S receptor radioligand binding (HEK-293); details: for inhibition at 10 µM: read-out: Dopamine D2S % Inhibition (10 μM)
Protocol: as §1, §3, §4

With `N#Cc1ccc(N2CCN(Cc3ccc(COc4cccc5c4CN(C4CCC(=O)NC4=O)C5=O)cc3)CC2)c(F)c1` (racemic) [Compound 1, 4-(4-(4-(((2-(2,6-dioxopiperidin-3-yl)-1-oxoisoindolin-4-yl)oxy)methyl)benzyl)piperazin-1-yl)-3-fluorobenzonitrile] the “Adrenergic α1 (non-selective) % Inhibition (10 μM)” value [1] was 67%, the IC50 [1] was 3900 nM and the IC50 (α1A adrenergic receptor) was 980 nM. The “D2S Agonism EC50” value (dopamine D2S receptor [2]; impedance, versus dopamine control) was “Negative”, the IC50 (α1B adrenergic receptor) was 6900 nM and the IC50 (dopamine D2L receptor) was 2300 nM. For the same molecule, the inhibition at 10 µM (dopamine D2L receptor; read-out: D2L % Inhibition (10 μM)) was 55%, the IC50 (dopamine D2S receptor [3]) was 7400 nM and the inhibition at 10 µM (dopamine D2S receptor [3]) was 55%.

With `N#Cc1ccc(N2CCN(Cc3ccc(COc4cccc5c4CN([C@H]4CCC(=O)NC4=O)C5=O)cc3)CC2)c(F)c1` [Compound 2, (S)-4-(4-(4-(((2-(2,6-dioxopiperidin-3-yl)-1-oxoisoindolin-4-yl)oxy)methyl)benzyl)piperazin-1-yl)-3-fluorobenzonitrile] the “Adrenergic α1 (non-selective) % Inhibition (10 μM)” value [1] was 62%, the IC50 [1] was roughly 1300 nM and the IC50 (α1A adrenergic receptor) was 580 nM. For the same molecule, the EC50 (dopamine D2S receptor [2]) was greater than 10000 nM, the IC50 (α1B adrenergic receptor) was 2400 nM and the IC50 (dopamine D2L receptor) was roughly 3000 nM. The IC50 (dopamine D2S receptor [3]) was roughly 2000 nM and the inhibition at 10 µM (dopamine D2S receptor [3]) was 52%.

For `O=C1CC[C@H](N2Cc3c(OCc4ccc(CN5CCN(c6ccc(F)cc6F)CC5)cc4)cccc3C2=O)C(=O)N1` [Compound B], the “Adrenergic α1 (non-selective) % Inhibition (10 μM)” value [1] was 98% and 100%, the IC50 [1] was 24 nM and the IC50 (α1A adrenergic receptor; epinephrine 3 nM, calcium mobilization, read-out: Antagonism IC50 α1A) was 6.4 nM. The EC50 (dopamine D2S receptor [2]; impedance, versus dopamine control, read-out: D2S Agonism EC50) was 2700 nM and 1900 nM, the IC50 (α1B adrenergic receptor; epinephrine 3000 nM, cAMP, read-out: Antagonism IC50 α1B) was 78 nM and the “D2L % Inhibition (10 μM)” value (dopamine D2L receptor; 10 μM) was 103%. The IC50 (dopamine D2L receptor; read-out: D2L Binding IC50) was 84 nM and the “Dopamine D2S % Inhibition (10 μM)” value (dopamine D2S receptor [3]; 10 μM) was 99, % and 99^a %.
